Assay results: patent publication US9616099B2, “Cyclosporin analogues for preventing or treating hepatitis C infection” (Enanta Pharmaceuticals, Inc., priority 2013, dated 2017)
Numbered stars: 1 amine (or outer) side, 2 acyl side, 3 side chain; on linkers, the order of the positions; unused ones are H or OH. Square brackets hold non-standard residues; d marks the D form. Peptide text beside a SMILES is read from it. * marks the point of attachment. X2 = CON(C)C(=O)OCCCC[C@@H](C)[C@@H](O)[C@@H](C(=O)[*:2])N(C)[*:1]; X10 = C[C@H](CCOC(=O)NC1CC1)[C@@H](O)[C@@H](C(=O)[*:2])N(C)[*:1]; X5 = C[C@H](CCCCOC(=O)N(C)C)[C@@H](O)[C@@H](C(=O)[*:2])N(C)[*:1]; X9 = C[C@H](CCCCN=[N+]=[N-])[C@@H](O)[C@@H](C(=O)[*:2])N(C)[*:1]; X7 = CCOC(=O)NCCCC[C@@H](C)[C@@H](O)[C@@H](C(=O)[*:2])N(C)[*:1]; X8 = CCOC(=O)OCCCC[C@@H](C)[C@@H](O)[C@@H](C(=O)[*:2])N(C)[*:1]; X1 = COC(=O)NCCCC[C@@H](C)[C@@H](O)[C@@H](C(=O)[*:2])N(C)[*:1]; X4 = COC(=O)OCCCC[C@@H](C)[C@@H](O)[C@@H](C(=O)[*:2])N(C)[*:1]; X3 = CC(=O)NCCCC[C@@H](C)[C@@H](O)[C@@H](C(=O)[*:2])N(C)[*:1]; NMe(dihydroBmt) = CCCC[C@@H](C)[C@@H](O)[C@H](NC)C(=O)O; X6 = C[C@H](CCCCN)[C@@H](O)[C@@H](C(=O)[*:2])N(C)[*:1]; Butyl(4-morpholino) = C(CC*)CN1CCOCC1; NMeT = CN[C@H](C(=O)O)[C@@H](C)O; NMeL = CN[C@@H](CC(C)C)C(=O)O; NMeV = CN[C@H](C(=O)O)C(C)C; dNMeA = CN[C@H](C)C(=O)O; Abu = CC[C@H](N)C(=O)O

Tested on: HCV 1a genotype replicon
Test: microbe, parasite or virus in culture
Assay type: cell-based
Details: Hepatitis C virus; HCV genotype 1a replicon, luciferase assay, 72 hours; read-out: EC50 (Ia) Genotype-1a Replicon EC50

Row | Compound | EC50 [nM]
1 | CC[C@@H]1NC(=O)[C@H]([C@H](O)[C@H](C)CCOC(=O)NC2CC2)N(C)C(=O)[C@H](C(C)C)N(C)C(=O)[C@H](CC(C)C)N(C)C(=O)[C@H](CC(C)C)N(C)C(=O)[C@@H](C)NC(=O)[C@H](C)NC(=O)[C@H](CC(C)C)N(C)C(=O)[C@H](C(C)C)NC(=O)[C@H]([C@@H](C)OCCCCN2CCOCC2)N(C)C(=O)[C@@H](C)N(C)C1=O [Example 6] (cyclo(A[dA][NMeL][NMeL][NMeV][X10][Abu][dNMeA][NMeT](Butyl(4-morpholino))V[NMeL])) | > 1000
2 | CCCC[C@@H](C)[C@@H](O)[C@H]1C(=O)N[C@@H](CC)C(=O)N(C)[C@H](C)C(=O)N(C)[C@@H]([C@@H](C)OCCCCN2CCOCC2)C(=O)N[C@@H](C(C)C)C(=O)N(C)[C@@H](CC(C)C)C(=O)N[C@@H](C)C(=O)N[C@H](C)C(=O)N(C)[C@@H](CC(C)C)C(=O)N(C)[C@@H](CC(C)C)C(=O)N(C)[C@@H](C(C)C)C(=O)N1C [Example 7] (cyclo(A[dA][NMeL][NMeL][NMeV][NMe(dihydroBmt)][Abu][dNMeA][NMeT](Butyl(4-morpholino))V[NMeL])) | 10 to 100
3 | CC[C@@H]1NC(=O)[C@H]([C@H](O)[C@H](C)CCCCOC(=O)OC)N(C)C(=O)[C@H](C(C)C)N(C)C(=O)[C@H](CC(C)C)N(C)C(=O)[C@H](CC(C)C)N(C)C(=O)[C@@H](C)NC(=O)[C@H](C)NC(=O)[C@H](CC(C)C)N(C)C(=O)[C@H](C(C)C)NC(=O)[C@H]([C@@H](C)OCCCCN2CCOCC2)N(C)C(=O)[C@@H](C)N(C)C1=O [Example 63] (cyclo(A[dA][NMeL][NMeL][NMeV][X4][Abu][dNMeA][NMeT](Butyl(4-morpholino))V[NMeL])) | 10 to 100
4 | CCOC(=O)OCCCC[C@@H](C)[C@@H](O)[C@H]1C(=O)N[C@@H](CC)C(=O)N(C)[C@H](C)C(=O)N(C)[C@@H]([C@@H](C)OCCCCN2CCOCC2)C(=O)N[C@@H](C(C)C)C(=O)N(C)[C@@H](CC(C)C)C(=O)N[C@@H](C)C(=O)N[C@H](C)C(=O)N(C)[C@@H](CC(C)C)C(=O)N(C)[C@@H](CC(C)C)C(=O)N(C)[C@@H](C(C)C)C(=O)N1C [Example 64] (cyclo(A[dA][NMeL][NMeL][NMeV][X8][Abu][dNMeA][NMeT](Butyl(4-morpholino))V[NMeL])) | 10 to 100
5 | CC[C@@H]1NC(=O)[C@H]([C@H](O)[C@H](C)CCCCOC(=O)N(C)C)N(C)C(=O)[C@H](C(C)C)N(C)C(=O)[C@H](CC(C)C)N(C)C(=O)[C@H](CC(C)C)N(C)C(=O)[C@@H](C)NC(=O)[C@H](C)NC(=O)[C@H](CC(C)C)N(C)C(=O)[C@H](C(C)C)NC(=O)[C@H]([C@@H](C)OCCCCN2CCOCC2)N(C)C(=O)[C@@H](C)N(C)C1=O [Example 65] (cyclo(A[dA][NMeL][NMeL][NMeV][X5][Abu][dNMeA][NMeT](Butyl(4-morpholino))V[NMeL])) | 10 to 100
6 | CC[C@@H]1NC(=O)[C@H]([C@H](O)[C@H](C)CCCCOC(=O)N(C)OC)N(C)C(=O)[C@H](C(C)C)N(C)C(=O)[C@H](CC(C)C)N(C)C(=O)[C@H](CC(C)C)N(C)C(=O)[C@@H](C)NC(=O)[C@H](C)NC(=O)[C@H](CC(C)C)N(C)C(=O)[C@H](C(C)C)NC(=O)[C@H]([C@@H](C)OCCCCN2CCOCC2)N(C)C(=O)[C@@H](C)N(C)C1=O [Example 66] (cyclo(A[dA][NMeL][NMeL][NMeV][X2][Abu][dNMeA][NMeT](Butyl(4-morpholino))V[NMeL])) | 10 to 100
7 | CC[C@@H]1NC(=O)[C@H]([C@H](O)[C@H](C)CCCCN=[N+]=[N-])N(C)C(=O)[C@H](C(C)C)N(C)C(=O)[C@H](CC(C)C)N(C)C(=O)[C@H](CC(C)C)N(C)C(=O)[C@@H](C)NC(=O)[C@H](C)NC(=O)[C@H](CC(C)C)N(C)C(=O)[C@H](C(C)C)NC(=O)[C@H]([C@@H](C)OCCCCN2CCOCC2)N(C)C(=O)[C@@H](C)N(C)C1=O [Example 68] (cyclo(A[dA][NMeL][NMeL][NMeV][X9][Abu][dNMeA][NMeT](Butyl(4-morpholino))V[NMeL])) | 10 to 100
8 | CC[C@@H]1NC(=O)[C@H]([C@H](O)[C@H](C)CCCCN)N(C)C(=O)[C@H](C(C)C)N(C)C(=O)[C@H](CC(C)C)N(C)C(=O)[C@H](CC(C)C)N(C)C(=O)[C@@H](C)NC(=O)[C@H](C)NC(=O)[C@H](CC(C)C)N(C)C(=O)[C@H](C(C)C)NC(=O)[C@H]([C@@H](C)OCCCCN2CCOCC2)N(C)C(=O)[C@@H](C)N(C)C1=O [Example 69] (cyclo(A[dA][NMeL][NMeL][NMeV][X6][Abu][dNMeA][NMeT](Butyl(4-morpholino))V[NMeL])) | 100 to 1000
9 | CC[C@@H]1NC(=O)[C@H]([C@H](O)[C@H](C)CCCCNC(C)=O)N(C)C(=O)[C@H](C(C)C)N(C)C(=O)[C@H](CC(C)C)N(C)C(=O)[C@H](CC(C)C)N(C)C(=O)[C@@H](C)NC(=O)[C@H](C)NC(=O)[C@H](CC(C)C)N(C)C(=O)[C@H](C(C)C)NC(=O)[C@H]([C@@H](C)OCCCCN2CCOCC2)N(C)C(=O)[C@@H](C)N(C)C1=O [Example 70] (cyclo(A[dA][NMeL][NMeL][NMeV][X3][Abu][dNMeA][NMeT](Butyl(4-morpholino))V[NMeL])) | 10 to 100
10 | CC[C@@H]1NC(=O)[C@H]([C@H](O)[C@H](C)CCCCNC(=O)OC)N(C)C(=O)[C@H](C(C)C)N(C)C(=O)[C@H](CC(C)C)N(C)C(=O)[C@H](CC(C)C)N(C)C(=O)[C@@H](C)NC(=O)[C@H](C)NC(=O)[C@H](CC(C)C)N(C)C(=O)[C@H](C(C)C)NC(=O)[C@H]([C@@H](C)OCCCCN2CCOCC2)N(C)C(=O)[C@@H](C)N(C)C1=O [Example 71] (cyclo(A[dA][NMeL][NMeL][NMeV][X1][Abu][dNMeA][NMeT](Butyl(4-morpholino))V[NMeL])) | 10 to 100
11 | CCOC(=O)NCCCC[C@@H](C)[C@@H](O)[C@H]1C(=O)N[C@@H](CC)C(=O)N(C)[C@H](C)C(=O)N(C)[C@@H]([C@@H](C)OCCCCN2CCOCC2)C(=O)N[C@@H](C(C)C)C(=O)N(C)[C@@H](CC(C)C)C(=O)N[C@@H](C)C(=O)N[C@H](C)C(=O)N(C)[C@@H](CC(C)C)C(=O)N(C)[C@@H](CC(C)C)C(=O)N(C)[C@@H](C(C)C)C(=O)N1C [Example 72] (cyclo(A[dA][NMeL][NMeL][NMeV][X7][Abu][dNMeA][NMeT](Butyl(4-morpholino))V[NMeL])) | 10 to 100
